Measured values from patent US9409952B2, “Peptide-compound cyclization method” (Chugai Seiyaku Kabushiki Kaisha, priority 2011, dated 2016).
Where two headings read alike, the source gives them in different places. Starred links: 1 amine or outer side, 2 acyl side, 3 side chain; linkers in the order of their positions; H or OH if unused. Positions of bridges follow the written chain, without caps; N, C: chain ends. Non-standard residues stand in square brackets, D forms with d. Residues, ends and D or L forms follow the SMILES beside them. ξ: configuration not given here. *: point of attachment. NMePhe(3-Cl) = CN[C@@H](Cc1cccc(Cl)c1)C(=O)O; NMeF = CN[C@@H](Cc1ccccc1)C(=O)O; NMeI = CC[C@H](C)[C@H](NC)C(=O)O; NMeβAla = CN(CCC(=O)[*:2])[*:1]; NMeL = CN[C@@H](CC(C)C)C(=O)O; ξNMeF = CNC(Cc1ccccc1)C(=O)O; NMeV = CN[C@H](C(=O)O)C(C)C; NMeA = CN[C@@H](C)C(=O)O; Piperidide = C1CCN(*)CC1; dNMeA = CN[C@H](C)C(=O)O; β3hA = C[C@H](N)CC(=O)O; Sar = CNCC(=O)O; tBu = CC(C)(C)*

Tests used:
[1] = Metabolic stability in human hepatic microsome; type: in vitro ADME; settings: microsomes
[2] = PAMPA (parallel artificial membrane permeability assay); type: in vitro ADME; settings: for Papp at 18 hours, 50 µM: PAMPA
Outline: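 Artificial membrane was 10% (w/v) egg lecithin plus 0.5% (w/v) cholesterol in dodecane on a PVDF filter. A 10 mM DMSO stock was added at 0.5% (v/v) to donor buffer (50 mM MOPSO, pH 6.5, 5.0% glycocholic acid). After 18 h at 37 °C, LC/MS or LC/UV gave donor and acceptor levels for Pe.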

[3] = pH 7.4, human hepatic microsome, NADPH(+), read-out: CL NADPH(+)
[4] = membrane permeation rate (Pe), 50 mM MOPSO buffer pH 6.5 with 5.0% glycocholic acid, 37° C., 18 hours, read-out: iPAMPA Pe
[5] = membrane permeation rate (Pe), 50 mM MOPSO buffer pH 6.5 with 5.0% glycocholic acid, 37° C., 18 hours

| SMILES | microsomal CLint at 1 uM [1, 3] | Papp at 18 hours, 50 µM [2, 4] | microsomal CLint at 1 uM ([1]; human, pH 7.4, CL NADPH(+)) | Papp at 18 hours, 50 µM ([2]; pH 6.5) | iPAMPA Pe [2, 5] |
| --- | --- | --- | --- | --- | --- |
| CC[C@H](C)[C@H]1C(=O)N(C)[C@@H](CC(C)C)C(=O)N[C@@H](Cc2ccccc2)C(=O)N[C@@H]([C@@H](C)O)C(=O)N[C@@H](CC(C)C)C(=O)N(C)[C@@H](Cc2ccccc2)C(=O)N(C)[C@@H](C(C)C)C(=O)N[C@H](C(=O)N2CCCCC2)CC(=O)N[C@H](C)C(=O)N[C@@H](C)C(=O)N1C [DP-252] ([dA]A[NMeI][NMeL]FTL[NMeF][NMeV]D-Piperidide; lactam N-10) | 119 µL/min/mg | 47 ×10⁻⁶ cm/s |  |  |  |
| CC(C)C[C@H]1C(=O)N(C)[C@@H](C)C(=O)N(C)[C@@H](C(C)C)C(=O)N[C@@H](C)C(=O)N[C@H](C(=O)N(C)[C@@H](Cc2ccccc2)C(=O)N(C)[C@@H](Cc2ccccc2)C(=O)N[C@@H](C)C(=O)N2CCCCC2)CC(=O)N(C)[C@H](C)C(=O)N(C)CC(=O)N[C@@H]([C@@H](C)O)C(=O)N(C)[C@@H](C)C(=O)N[C@@H](Cc2ccccc2)C(=O)N1C [DP-507] ([dNMeA][Sar]T[NMeA]F[NMeL][NMeA][NMeV]AD[NMeF][NMeF]A-Piperidide; lactam N-10) | 17 µL/min/mg | 11 ×10⁻⁶ cm/s |  |  |  |
| CC[C@H](C)[C@H]1C(=O)NCC(=O)N(C)[C@@H](Cc2ccccc2)C(=O)N[C@@H]([C@@H](C)O)C(=O)N(C)[C@@H](C)C(=O)N[C@@H](CC(C)C)C(=O)N[C@H](C(=O)N2CCCCC2)CC(=O)N(C)[C@H](C)C(=O)N(C)[C@@H](C)C(=O)N[C@@H](Cc2ccccc2)C(=O)N(C)[C@@H](CC(C)C)C(=O)N[C@@H](C(C)C)C(=O)N1C [DP-93] ([dNMeA][NMeA]F[NMeL]V[NMeI]G[NMeF]T[NMeA]LD-Piperidide; lactam N-12) |  |  | 17 µL/min/mg | 22 ×10⁻⁶ cm/s |  |
| CC(C)C[C@H]1C(=O)NCC(=O)N[C@H](C(=O)N2CCCCC2)CC(=O)N[C@H](C(C)C)C(=O)N[C@@H]([C@@H](C)O)C(=O)N(C)[C@@H](C)C(=O)N(C)[C@@H](Cc2ccccc2)C(=O)N(C)[C@@H](Cc2ccccc2)C(=O)N[C@@H](COC(C)(C)C)C(=O)N1C [DP-176] ([dV]T[NMeA][NMeF][NMeF]S(tBu)[NMeL]GD-Piperidide; lactam N-9) | 47 µL/min/mg | 25 ×10⁻⁶ cm/s |  |  |  |
| CC(C)C[C@@H]1NC(=O)[C@H](CC(C)C)N(C)C(=O)C[C@@H](C(=O)N2CCCCC2)NC(=O)[C@H](C)N(C)C(=O)[C@H](CC(C)C)N(C)C(=O)[C@H]([C@@H](C)O)NC(=O)[C@H](Cc2ccccc2)N(C)C1=O [DP-738] ([NMeL]L[NMeF]T[NMeL][NMeA]D-Piperidide; lactam N-7) | 221 µL/min/mg | 22 ×10⁻⁶ cm/s |  |  |  |
| CC(C)C[C@H]1C(=O)N[C@@H](Cc2ccccc2)C(=O)N(C)[C@@H](C(C)C)C(=O)N[C@@H]([C@@H](C)O)C(=O)N[C@H](C(=O)N(C)[C@@H](Cc2ccccc2)C(=O)N(C)[C@@H](Cc2ccccc2)C(=O)N[C@@H](C)C(=O)N2CCCCC2)CC(=O)N(C)[C@@H](C)C(=O)N(C)[C@@H](C)C(=O)N[C@@H](C(C)C)C(=O)N(C)[C@@H](Cc2ccccc2)C(=O)NCC(=O)N1C [DP-456] ([NMeA][NMeA]V[NMeF]G[NMeL]F[NMeV]TD[NMeF][NMeF]A-Piperidide; lactam N-10) | 29 µL/min/mg | 41 ×10⁻⁶ cm/s |  |  |  |
| CC[C@H](C)[C@@H]1NC(=O)[C@H](CC(C)C)NC(=O)[C@H](Cc2ccccc2)NC(=O)CN(C)C(=O)[C@H](CC(C)C)NC(=O)[C@H](Cc2ccccc2)NC(=O)[C@@H](C)NC(=O)C[C@@H](C(=O)N2CCCCC2)NC(=O)[C@H]([C@@H](C)O)NC(=O)[C@H](Cc2ccccc2)NC1=O [DP-430] ([dA]FL[Sar]FLIFTD-Piperidide; lactam N-10) | 96 µL/min/mg | 32 ×10⁻⁶ cm/s |  |  |  |
| CC[C@H](C)[C@@H]1NC(=O)[C@H](C)N(C)C(=O)[C@H](CC(C)C)N(C)C(=O)[C@H](Cc2ccccc2)NC(=O)[C@H]([C@@H](C)O)NC(=O)[C@H](C(C)C)N(C)C(=O)[C@H](C)N(C)C(=O)CN(C)C(=O)[C@@H](C(C)C)NC(=O)C[C@@H](C(=O)N(C)C(Cc2ccccc2)C(=O)N(C)[C@@H](Cc2ccccc2)C(=O)N[C@@H](C)C(=O)N2CCCCC2)NC1=O (stereo partly drawn) [DP-293] ([dV][Sar][NMeA][NMeV]TF[NMeL][NMeA]ID[ξNMeF][NMeF]A-Piperidide; lactam N-10) |  |  | 29 µL/min/mg | 45 ×10⁻⁶ cm/s |  |
| CNC(=O)CC[C@@H]1NC(=O)[C@H](CC(C)C)N(C)C(=O)[C@H](C)N(C)C(=O)[C@@H](C(C)C)NC(=O)C[C@@H](C(=O)N2CCCCC2)NC(=O)[C@H]([C@@H](C)O)NC(=O)[C@H](C)N(C)C(=O)CN(C)C(=O)[C@H](CC(C)C)N(C)C(=O)[C@H](Cc2ccccc2)NC(=O)[C@H](Cc2ccccc2)N(C)C1=O [DP-627] ([dV][NMeA][NMeL]E(NHMe)[NMeF]F[NMeL][Sar][NMeA]TD-Piperidide; lactam N-11) | 9 µL/min/mg | 2.4 ×10⁻⁶ cm/s |  |  |  |
| CC(C)C[C@@H]1NC(=O)[C@H]([C@@H](C)O)NC(=O)[C@H](CC(C)C)N(C)C(=O)CN(C)C(=O)[C@H](Cc2ccccc2)N(C)C(=O)[C@H](C(C)C)NC(=O)C[C@@H](C(=O)N2CCCCC2)NC1=O [DP-720] (V[NMeF][Sar][NMeL]TLD-Piperidide; lactam N-7) | 62 µL/min/mg | 16 ×10⁻⁶ cm/s |  |  |  |
| CC[C@H](C)[C@@H]1NC(=O)[C@H]([C@@H](C)O)NC(=O)[C@H](Cc2ccccc2)NC(=O)[C@H](CC(C)C)NC(=O)[C@@H](C)NC(=O)C[C@@H](C(=O)N2CCCCC2)NC(=O)[C@H](CC(C)C)NC(=O)[C@H](CC(C)C)N(C)C(=O)[C@H](CC(C)C)NC(=O)CNC(=O)[C@H](Cc2ccccc2)NC1=O [DP-321] ([dA]LFTIFGL[NMeL]LD-Piperidide; lactam N-11) | 19 µL/min/mg | 6.2 ×10⁻⁶ cm/s |  |  |  |
| CC(C)C[C@@H]1NC(=O)[C@@H](C(C)C)NC(=O)C[C@@H](C(=O)N2CCCCC2)NC(=O)[C@H](Cc2ccccc2)NC(=O)[C@H](CC(C)C)N(C)C(=O)[C@H](Cc2ccccc2)N(C)C(=O)[C@H](C)N(C)C(=O)[C@H]([C@@H](C)O)NC1=O [DP-702] ([dV]LT[NMeA][NMeF][NMeL]FD-Piperidide; lactam N-8) | 123 µL/min/mg | 25 ×10⁻⁶ cm/s |  |  |  |
| CC[C@H](C)[C@@H]1NC(=O)[C@H](C(C)C)NC(=O)[C@H](Cc2ccccc2)N(C)C(=O)[C@H](C(C)C)NC(=O)[C@H](CC(C)C)N(C)C(=O)[C@H](C)NC(=O)C[C@@H](C(=O)N(C)[C@@H](Cc2ccccc2)C(=O)N(C)[C@@H](CC(C)C)C(=O)N[C@H](C(=O)N(C)[C@@H](CC(C)C)C(=O)N[C@H](C(=O)N2CCCCC2)[C@@H](C)CC)[C@@H](C)O)NC1=O [DP-913] (A[NMeL]V[NMeF]VID[NMeF][NMeL]T[NMeL]I-Piperidide; lactam N-7) | 30 µL/min/mg |  |  |  | 1.0E−07 |
| CC[C@H](C)[C@@H]1NC(=O)[C@H](C(C)C)N(C)C(=O)[C@H](CC(C)C)N(C)C(=O)[C@H](C)N(C)C(=O)[C@H]([C@@H](C)O)NC(=O)[C@H](Cc2ccccc2)N(C)C(=O)CCN(C)C(=O)C[C@@H](C(=O)N(C)[C@@H](Cc2ccccc2)C(=O)N(C)[C@@H](Cc2ccccc2)C(=O)N[C@@H](C)C(=O)N2CCCCC2)NC(=O)[C@H](C)N(C)C(=O)[C@H](CC(C)C)N(C)C1=O [DP-297] ([NMeβAla][NMeF]T[NMeA][NMeL][NMeV]I[NMeL][NMeA]D[NMeF][NMeF]A-Piperidide; lactam N-10) |  |  | 78 µL/min/mg | 19 ×10⁻⁶ cm/s |  |
| CC[C@H](C)[C@@H]1NC(=O)[C@H](C)N(C)C(=O)[C@@H](C)N(C)C(=O)C[C@H](C)NC(=O)[C@H](CC(C)C)N(C)C(=O)[C@H](C)N(C)C(=O)[C@H](Cc2cccc(Cl)c2)N(C)C(=O)[C@H]([C@@H](C)O)NC(=O)[C@H](Cc2cccc(Cl)c2)N(C)C(=O)[C@H](CC(C)C)N(C)C1=O [DP-811] (cyclo(I[NMeL][NMePhe(3-Cl)]T[NMePhe(3-Cl)][NMeA][NMeL][β3hA][dNMeA][NMeA])) | 241 µL/min/mg |  |  |  | 7.0E−05 |
| CC[C@H](C)[C@@H]1NC(=O)[C@H](Cc2ccccc2)N(C)C(=O)[C@H]([C@@H](C)O)NC(=O)[C@@H](C)NC(=O)C[C@@H](C(=O)N(C)[C@@H](Cc2ccccc2)C(=O)N[C@@H](C)C(=O)N2CCCCC2)NC(=O)[C@H](CC(C)C)N(C)C(=O)[C@H](CC(C)C)N(C)C(=O)[C@H](Cc2ccccc2)N(C)C(=O)[C@H](CC(C)C)N(C)C(=O)[C@H](C)N(C)C1=O [DP-189] ([dA]T[NMeF]I[NMeA][NMeL][NMeF][NMeL][NMeL]D[NMeF]A-Piperidide; lactam N-10) | 3 µL/min/mg | 1.4 ×10⁻⁶ cm/s |  |  |  |
| CC(C)C[C@@H]1NC(=O)[C@H](CC(C)C)N(C)C(=O)[C@H](C)NC(=O)[C@H](C(C)C)N(C)C(=O)[C@H](C)N(C)C(=O)CN(C)C(=O)[C@H]([C@@H](C)O)NC(=O)[C@H](Cc2ccccc2)NC(=O)[C@H](CC(C)C)N(C)C(=O)[C@H](C)N(C)C(=O)C[C@@H](C(=O)N2CCCCC2)NC1=O [DP-237] ([NMeA][NMeL]FT[Sar][NMeA][NMeV]A[NMeL]LD-Piperidide; lactam N-11) | 37 µL/min/mg | 12 ×10⁻⁶ cm/s |  |  |  |
| CC(C)C[C@H]1C(=O)N(C)[C@@H](Cc2ccccc2)C(=O)N[C@@H]([C@@H](C)O)C(=O)N(C)[C@@H](C)C(=O)N[C@@H](C(C)C)C(=O)N(C)[C@@H](CC(C)C)C(=O)N(C)[C@@H](CC(C)C)C(=O)N[C@H](C(=O)N(C)[C@@H](Cc2ccccc2)C(=O)N[C@@H](C)C(=O)N2CCCCC2)CC(=O)N(C)CCC(=O)N1C [DP-201] ([NMeβAla][NMeL][NMeF]T[NMeA]V[NMeL][NMeL]D[NMeF]A-Piperidide; lactam N-9) | 209 µL/min/mg | 27 ×10⁻⁶ cm/s |  |  |  |
